# Results reported in patent publication US20080102497A1, “ENZYMATIC HYDROLYSIS OF STARCH” (priority 2006, published 2008).
# Several values for one entry are separate records, joined by “and”; a condition that tells them apart may be missing. Equal values may be shown once. Read-outs that look alike come from different tables or passages of the source.
# Key:
# [1] = target: T1, glucoamylase from Aspergillus Niger (Aspergillus niger, UniProt P69328); conditions: for Relative Activity: raw corn starch, pH 5.3, 37° C., 20 min
# T1 sequence (P69328 25-640): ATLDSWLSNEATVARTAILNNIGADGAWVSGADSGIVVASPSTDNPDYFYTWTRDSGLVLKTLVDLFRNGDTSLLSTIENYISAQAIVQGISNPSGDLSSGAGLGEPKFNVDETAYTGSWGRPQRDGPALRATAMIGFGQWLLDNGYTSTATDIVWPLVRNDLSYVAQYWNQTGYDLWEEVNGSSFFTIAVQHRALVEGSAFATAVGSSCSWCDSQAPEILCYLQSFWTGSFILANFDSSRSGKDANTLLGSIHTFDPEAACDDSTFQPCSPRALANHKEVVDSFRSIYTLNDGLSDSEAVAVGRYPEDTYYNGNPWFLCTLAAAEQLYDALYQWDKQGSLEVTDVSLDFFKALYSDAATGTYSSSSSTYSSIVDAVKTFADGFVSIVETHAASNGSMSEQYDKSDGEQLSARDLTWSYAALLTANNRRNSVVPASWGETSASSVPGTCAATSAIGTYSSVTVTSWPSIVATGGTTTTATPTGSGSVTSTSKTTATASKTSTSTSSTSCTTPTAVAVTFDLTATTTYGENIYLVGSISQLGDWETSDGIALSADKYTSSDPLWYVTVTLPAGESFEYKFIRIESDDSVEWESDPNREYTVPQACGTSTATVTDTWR
# Experimental: Thereafter, 40 μl of each pre-incubation solution was added to 15 mg raw corn starch, and the reaction mixture incubated at 37° C. for 20 minutes. The control reaction mixture contained substrate, enzyme, and buffer but no manganese ion. The starch hydrolysis reaction was stopped by combining the reaction mixture with a solution containing DNSA and heating for 30 min at 85° C. The absorbance of the control and test samples was measured at 562 nm to monitor the amount of reducing sugar in each sample.
# [2] = tested on: glucoamylase from Rhizopus sp.; assay: temperature effect on conversion of raw corn starch; format: biochemical; conditions: 1 mM Mn^++; for % Conversion: 10 min, raw corn starch, pH 5.3
# Experimental: An enzyme solution of the glucoamylase from Rhizopus sp. […] Thereafter, 50 μl of the enzyme solution was added to each of four samples containing 15 mg raw corn starch and incubated at 22° C., 32° C., 40° C. or 50° C., respectively, for 10 minutes.
# [3] = target: T2, β-amylase Type II-B from barley (Hordeum vulgare, UniProt P16098); assay: hydrolysis of raw corn starch or soluble starch; format: biochemical; conditions: for % Relative Activity: pH 5.3, 37° C., 20 min
# T2 construct: purchased Sigma Sigma-7130
# T2 sequence (P16098 whole entry): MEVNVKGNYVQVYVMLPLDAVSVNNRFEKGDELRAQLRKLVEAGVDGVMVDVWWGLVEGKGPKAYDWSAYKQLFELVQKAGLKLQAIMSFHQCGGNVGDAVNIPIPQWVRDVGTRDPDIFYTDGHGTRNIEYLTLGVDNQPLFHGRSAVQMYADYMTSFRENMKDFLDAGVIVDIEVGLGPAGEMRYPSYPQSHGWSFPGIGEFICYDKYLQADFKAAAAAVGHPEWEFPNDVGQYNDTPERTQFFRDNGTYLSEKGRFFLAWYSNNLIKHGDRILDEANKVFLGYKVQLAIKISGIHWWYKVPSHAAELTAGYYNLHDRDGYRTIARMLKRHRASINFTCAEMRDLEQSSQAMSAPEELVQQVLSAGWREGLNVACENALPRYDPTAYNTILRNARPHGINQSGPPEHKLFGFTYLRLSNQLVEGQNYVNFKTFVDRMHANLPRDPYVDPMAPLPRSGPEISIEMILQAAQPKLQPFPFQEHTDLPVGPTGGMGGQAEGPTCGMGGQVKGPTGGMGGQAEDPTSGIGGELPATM
# Experimental: (§2) Each of the buffered enzyme solutions was separately added to 15 mg raw corn starch or 0.6 mg soluble starch, and the reaction mixtures incubated at 37° C. for 20 minutes. The control reaction mixture contained substrate, enzyme, and buffer but no manganese ion. The starch hydrolysis reaction was stopped by combining the reaction mixture with a solution containing DNSA and heating for 30 min at 85° C. The absorbance of the control and test samples was measured at 562 nm to monitor the amount of reducing sugar in each sample.
# [4] = target: T3, β-amylase from sweet potato (Ipomoea batatas, UniProt P10537); assay: hydrolysis of raw corn starch or soluble starch; format: biochemical; conditions: for % Relative Activity: pH 5.3, 37° C., 20 min
# T3 construct: purchased Sigma A-7005
# T3 sequence (P10537 whole entry): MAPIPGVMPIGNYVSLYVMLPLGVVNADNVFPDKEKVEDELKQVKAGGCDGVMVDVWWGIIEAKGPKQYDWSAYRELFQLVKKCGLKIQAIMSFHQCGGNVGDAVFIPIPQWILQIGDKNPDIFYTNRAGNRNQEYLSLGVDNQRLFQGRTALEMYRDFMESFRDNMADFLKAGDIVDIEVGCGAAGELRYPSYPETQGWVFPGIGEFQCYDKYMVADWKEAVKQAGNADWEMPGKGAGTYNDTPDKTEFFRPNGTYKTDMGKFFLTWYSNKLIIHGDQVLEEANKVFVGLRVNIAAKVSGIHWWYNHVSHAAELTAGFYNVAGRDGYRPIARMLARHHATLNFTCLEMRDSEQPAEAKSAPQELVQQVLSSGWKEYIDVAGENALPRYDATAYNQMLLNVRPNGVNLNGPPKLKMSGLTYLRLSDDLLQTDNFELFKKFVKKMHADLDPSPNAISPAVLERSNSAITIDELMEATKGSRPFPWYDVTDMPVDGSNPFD
# Experimental: as §2
# [5] = target: T4, α-amylase from Bacillus licheniformis (Bacillus licheniformis, UniProt P06278); assay: hydrolysis of cooked starches from different botanical sources; format: biochemical; conditions: pH 5.2, 37° C., 10 min
# T4 sequence (P06278 30-512): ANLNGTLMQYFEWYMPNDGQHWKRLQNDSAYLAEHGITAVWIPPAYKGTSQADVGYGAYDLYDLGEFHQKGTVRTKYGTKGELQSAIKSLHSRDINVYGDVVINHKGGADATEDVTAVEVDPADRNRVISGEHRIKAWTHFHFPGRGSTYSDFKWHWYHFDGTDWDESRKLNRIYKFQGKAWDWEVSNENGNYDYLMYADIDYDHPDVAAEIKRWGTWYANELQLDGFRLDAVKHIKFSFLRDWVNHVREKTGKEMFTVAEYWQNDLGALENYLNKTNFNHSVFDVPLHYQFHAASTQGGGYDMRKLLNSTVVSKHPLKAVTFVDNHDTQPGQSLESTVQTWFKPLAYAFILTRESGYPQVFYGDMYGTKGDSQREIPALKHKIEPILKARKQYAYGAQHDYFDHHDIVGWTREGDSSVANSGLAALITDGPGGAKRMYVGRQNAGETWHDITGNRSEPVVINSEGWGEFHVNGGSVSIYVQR
# Experimental: The control reaction mixture contained enzyme, buffer, and starch but no manganese ion. The starch hydrolysis reaction was stopped by combining the reaction mixture with 3,5 dinitrosalicylic acid (DNSA) and heating for 30 min at 85° C. The absorbance of the control and test samples was measured at 562 nm to monitor the amount of reducing sugar in each sample.
# [6] = target: T4, α-amylase from Bacillus licheniformis; assay: hydrolysis of cooked corn starch varieties; format: biochemical; conditions: pH 5.2, 37° C., 10 min
# β-amylase from barley = β-amylase from barley (Hordeum vulgare, UniProt P16098); assay: hydrolysis of cooked corn starch varieties; format: biochemical; conditions: pH 5.2, 37° C., 10 min
# β-amylase from barley, sequence (P16098 whole entry): as the sequence (P16098 whole entry) above
# Experimental: (§1) The separate reaction mixtures were incubated at 37° C. for 10 minutes. The control reaction mixture contained enzyme, buffer, and starch but no manganese ion. The starch hydrolysis reaction was stopped by combining the reaction mixture with a solution containing DNSA and heating for 30 min at 85° C. The absorbance of the control and test samples was measured at 562 nm to monitor the amount of reducing sugar in each sample.
# [7] = target: T4, α-amylase from Bacillus licheniformis; assay: hydrolysis of cooked dent corn starch; format: biochemical; conditions: cooked dent corn starch 0.5%, pH 5.2, 37° C., 10 min
# Experimental: (§3) The separate reaction mixtures were incubated at 37° C. for 10 minutes. The control reaction mixtures contained enzyme, buffer, and starch but no manganese ion. The starch hydrolysis reaction was stopped by combining the reaction mixture with a solution containing DNSA and heating for 30 min at 85° C. The absorbance of the control and test samples was measured at 562 nm to monitor the amount of reducing sugar in each sample.
# [8] = tested on: α-amylase from Bacillus subtilis; assay: hydrolysis of cooked dent corn starch; format: biochemical; conditions: 0.01 mM Mn^++; cooked dent corn starch 0.5%; pH 5.2; 37° C., 10 min
# Experimental: as §3
# [9] = target: T5, industrial α-amylase known as Termamyl (Bacillus licheniformis, UniProt P06278); assay: hydrolysis of cooked dent corn starch; format: biochemical; conditions: cooked dent corn starch 0.5%, pH 5.2, 37° C., 10 min
# T5 construct: purchased Novozymes
# T5 sequence (P06278 30-512): as the sequence (P06278 30-512) above
# Experimental: as §3
# [10] = target: T3, β-amylase from sweet potato; assay: hydrolysis of cooked dent corn starch; format: biochemical; conditions: cooked dent corn starch 0.5%, pH 5.2, 37° C., 10 min
# Experimental: as §3
# [11] = target: T1, glucoamylase from Aspergillus Niger; conditions: cooked dent corn starch 0.5%, pH 5.2, 37° C., 10 min
# Experimental: as §1, with “control reaction mixtures contained enzyme,” for “control reaction mixture contained enzyme,”
# [12] = raw corn starch and soluble starch
# [13] = 0.01 mM Mn^++, cooked high-amylose V corn starch 0.5%
# [14] = 0.01 mM Mn^++, cooked soluble corn starch 0.5%
# [15] = 0.01 mM Mn^++, cooked waxy corn starch 0.5%
# [16] = 0.1 mM Mn^++, cooked dent corn starch 0.5%
# [17] = 0.1 mM Mn^++, cooked high-amylose V corn starch 0.5%
# [18] = 0.1 mM Mn^++, cooked soluble corn starch 0.5%
# [19] = 0.1 mM Mn^++, cooked waxy corn starch 0.5%
# [20] = 1 mM Mn^++, cooked dent corn starch 0.5%
# [21] = 1 mM Mn^++, cooked soluble corn starch 0.5%
# [22] = 10 mM Mn^++, cooked dent corn starch 0.5%
# [23] = 10 mM Mn^++, cooked high-amylose V corn starch 0.5%
# [24] = 10 mM Mn^++, cooked soluble corn starch 0.5%
# [25] = 10 mM Mn^++, cooked waxy corn starch 0.5%
smiles,measurement,setting,value
"[Mn+2] [Mn^++, manganese ions]",Relative Activity,[1]; 0.01 mM Mn^++,94.4%
same,Relative Activity,[1]; 0.1 mM Mn^++,111.2%
same,Relative Activity,[1]; 1 mM Mn^++,127.1%
same,Relative Activity,[1]; 10 mM Mn^++,160.6%
same,effect on hydrolysis of raw corn starch (in words),[1]; summary of Table 4,enhances the hydrolysis of raw corn starch
same,temperature dependence of Mn^++ activation (in words),[2]; 22-50° C.,occurs at a wide temperature range
same,% Conversion,[2]; 22° C.,0.026%
same,% Conversion,[2]; 32° C.,0.064%
same,% Conversion,[2]; 40° C.,0.152%
same,% Conversion,[2]; 50° C.,0.274%
same,% Relative Activity,"[3]; 0.01 mM Mn^++, raw corn starch",99.5%
same,% Relative Activity,"[3]; 0.01 mM Mn^++, soluble starch",112.5%
same,% Relative Activity,"[3]; 0.1 mM Mn^++, raw corn starch",118.4%
same,% Relative Activity,"[3]; 0.1 mM Mn^++, soluble starch",119.2%
same,% Relative Activity,"[3]; 1 mM Mn^++, raw corn starch",133.3%
same,% Relative Activity,"[3]; 1 mM Mn^++, soluble starch",155.7%
same,% Relative Activity,"[3]; 10 mM Mn^++, raw corn starch",152.2%
same,% Relative Activity,"[3]; 10 mM Mn^++, soluble starch",157.3%
same,effect on hydrolysis of starch (in words),[3]; [12],enhances the hydrolysis of both raw corn starch and soluble starch
same,% Relative Activity,"[4]; 0.01 mM Mn^++, raw corn starch",113.9%
same,% Relative Activity,"[4]; 0.01 mM Mn^++, soluble starch",108.6%
same,% Relative Activity,"[4]; 0.1 mM Mn^++, raw corn starch",106.6%
same,% Relative Activity,"[4]; 0.1 mM Mn^++, soluble starch",127.1%
same,% Relative Activity,"[4]; 1 mM Mn^++, raw corn starch",136.5%
same,% Relative Activity,"[4]; 1 mM Mn^++, soluble starch",146.6%
same,% Relative Activity,"[4]; 10 mM Mn^++, raw corn starch",160.6%
same,% Relative Activity,"[4]; 10 mM Mn^++, soluble starch",176.3%
same,effect on hydrolysis of starch (in words),[4]; [12],enhances the hydrolysis of both raw corn starch and soluble starch
same,Relative Activity,"[5]; 0.01 mM Mn^++, cooked potato starch 0.5%",109.9%
same,Relative Activity,"[5]; 0.01 mM Mn^++, cooked rice starch 0.5%",115.5%
same,Relative Activity,"[5]; 0.01 mM Mn^++, cooked soluble potato starch 0.5%",118.3%
same,Relative Activity,"[5]; 0.1 mM Mn^++, cooked barley starch 0.5%",129.2%
same,Relative Activity,"[5]; 0.1 mM Mn^++, cooked pea starch 0.5%",129.5%
same,Relative Activity,"[5]; 0.1 mM Mn^++, cooked potato starch 0.5%",117.5%
same,Relative Activity,"[5]; 0.1 mM Mn^++, cooked rice starch 0.5%",126.0%
same,Relative Activity,"[5]; 0.1 mM Mn^++, cooked soluble potato starch 0.5%",147.6%
same,Relative Activity,"[5]; 0.1 mM Mn^++, cooked tapioca starch 0.5%",119.2%
same,Relative Activity,"[5]; 0.1 mM Mn^++, cooked wheat starch 0.5%",118.2%
same,Relative Activity,"[5]; 1 mM Mn^++, cooked pea starch 0.5%",143.9%
same,Relative Activity,"[5]; 1 mM Mn^++, cooked potato starch 0.5%",128.7%
same,Relative Activity,"[5]; 1 mM Mn^++, cooked rice starch 0.5%",129.6%
same,Relative Activity,"[5]; 1 mM Mn^++, cooked soluble potato starch 0.5%",142.0%
same,Relative Activity,"[5]; 1 mM Mn^++, cooked tapioca starch 0.5%",121.5%
same,Relative Activity,"[5]; 1 mM Mn^++, cooked wheat starch 0.5%",153.0%
same,Relative Activity,"[5]; 10 mM Mn^++, cooked barley starch 0.5%",142.2%
same,Relative Activity,"[5]; 10 mM Mn^++, cooked pea starch 0.5%",182.3%
same,Relative Activity,"[5]; 10 mM Mn^++, cooked potato starch 0.5%",160.2%
same,Relative Activity,"[5]; 10 mM Mn^++, cooked rice starch 0.5%",157.7%
same,Relative Activity,"[5]; 10 mM Mn^++, cooked wheat starch 0.5%",142.1%
same,Relative Activity,[6]; [13],116.5%
same,Relative Activity,[6]; [14],118.3%
same,Relative Activity,[6]; [15],118.3%
same,Relative Activity,[6]; [16],124.4%
same,Relative Activity,[6]; [17],135.5%
same,Relative Activity,[6]; [18],128.1%
same,Relative Activity,[6]; [19],126.9%
same,Relative Activity,[6]; [20],128.7%
same,Relative Activity,[6]; [21],135.8%
same,Relative Activity,[6]; [22],147.8%
same,Relative Activity,[6]; [23],160.1%
same,Relative Activity,[6]; [24],162.7%
same,Relative Activity,[6]; [25],155.8%
same,Relative Activity,"β-amylase from barley; 0.01 mM Mn^++, cooked dent corn starch 0.5%",123.5%
same,Relative Activity,β-amylase from barley; [13],111.2%
same,Relative Activity,β-amylase from barley; [14],138.7%
same,Relative Activity,β-amylase from barley; [15],114.2%
same,Relative Activity,β-amylase from barley; [16],135.3%
same,Relative Activity,β-amylase from barley; [17],123.3%
same,Relative Activity,β-amylase from barley; [18],135.7%
same,Relative Activity,β-amylase from barley; [19],129.9%
same,Relative Activity,β-amylase from barley; [20],149.8%
same,Relative Activity,"β-amylase from barley; 1 mM Mn^++, cooked high-amylose V corn starch 0.5%",136.3%
same,Relative Activity,β-amylase from barley; [21],174.8%
same,Relative Activity,"β-amylase from barley; 1 mM Mn^++, cooked waxy corn starch 0.5%",148.3%
same,Relative Activity,β-amylase from barley; [22],210.1%
same,Relative Activity,β-amylase from barley; [23],184.5%
same,Relative Activity,β-amylase from barley; [24],199.6%
same,Relative Activity,β-amylase from barley; [25],237.4%
same,Relative Activity,[7]; 0.1 mM Mn^++,124.4%
same,Relative Activity,[7]; 1 mM Mn^++,128.7%
same,Relative Activity,[7]; 10 mM Mn^++,147.8%
same,Relative Activity,[8],113.0% and 119.5%
same,Relative Activity,[9]; 0.01 mM Mn^++,114.7%
same,Relative Activity,[9]; 10 mM Mn^++,156.3%
same,Relative Activity,[10]; 0.01 mM Mn^++,117.6%
same,Relative Activity,[10]; 0.1 mM Mn^++,131.4%
same,Relative Activity,[10]; 1 mM Mn^++,148.0%
same,Relative Activity,[10]; 10 mM Mn^++,215.0%
same,Relative Activity,[11]; 0.01 mM Mn^++,113.3%
same,Relative Activity,[11]; 0.1 mM Mn^++,126.1%
same,Relative Activity,[11]; 1 mM Mn^++,148.4%
same,Relative Activity,[11]; 10 mM Mn^++,186.9%
